Results: patent US20050171358A1 (priority 2002, published 2005)

Key:
[1] = system: Colletotrichum lagenarium; conditions: 200 ppm spray on cucumber (3 leaf stage), inoculated next day; lesion numbers on first and second leaves after 7 days in green house, graded by Table 5
[2] = system: Pyricularia oryzae; type: in vivo; conditions: 200 ppm spray on rice (Koshihikari, 3 leaf stage), inoculated next day; lesion numbers on third leaves after 7 days in green house, graded by Table 5

In the case of `COc1ccc(OCc2cc(CNC(=O)c3ccc(OC)cc3)on2)cc1` [IV-56, N-{[3-(4-methoxyphenyl)oxymethyl-5-isoxazolyl]methyl}-4-methoxybenzamide], the “Evaluation (effect for cucumber anthracnose)” value [1] is reported as 2 (11˜20) and the “Evaluation (effect for rice blast)” value [2] is reported as 3 (6˜10).

In the case of `COc1ccc(C(=O)NCc2cc(COc3ccccc3F)no2)cc1` [IV-57], the “Evaluation (effect for cucumber anthracnose)” value [1] is reported as 5 (0) and the “Evaluation (effect for rice blast)” value [2] is reported as 5 (0).

In the case of `COc1ccc(C(=O)NCc2cc(COc3cccc(F)c3)no2)cc1` [IV-58, N-{[3-(3-fluorophenyl)oxymethyl-5-isoxazolyl]methyl}-4-methoxybenzamide], the “Evaluation (effect for cucumber anthracnose)” value [1] is reported as 5 (0) and the “Evaluation (effect for rice blast)” value [2] is reported as 5 (0).

`COc1ccc(C(=O)NCc2cc(COc3ccc(F)cc3)no2)cc1` [IV-59, N-{[3-(4-fluorophenyl)oxymethyl-5-isoxazolyl]methyl}-4-methoxybenzamide] was tested, and the “Evaluation (effect for cucumber anthracnose)” value [1] was 5 (0) and the “Evaluation (effect for rice blast)” value [2] was 5 (0).

For `COc1ccc(C(=O)NCc2cc(COc3ccc([N+](=O)[O-])cc3)no2)cc1` [IV-60, N-{[3-(4-nitrophenyl)oxymethyl-5-isoxazolyl]methyl}-4-methoxybenzamide], the “Evaluation (effect for cucumber anthracnose)” value [1] was 5 (0) and the “Evaluation (effect for rice blast)” value [2] was 5 (0).

With `COc1ccc(C(=O)NCc2cc(COc3ccc(-n4cncn4)cc3)no2)cc1` [IV-73] the “Evaluation (effect for cucumber anthracnose)” value [1] was 3 (6˜10) and the “Evaluation (effect for rice blast)” value [2] was 2 (11˜20).

`COc1ccc(C(=O)NCc2cc(CON=Cc3ccccc3)no2)cc1` [IV-74, {3-[(4-methoxyphenyl)carbonylaminomethyl]-5-isoxazolyl]methoxyiminobenzyl] was tested, and the “Evaluation (effect for cucumber anthracnose)” value [1] was 3 (6˜10) and the “Evaluation (effect for rice blast)” value [2] was 4 (1˜5).

`CO/N=C/c1ccc(OCc2cc(CNC(=O)c3ccc(OC)cc3)on2)cc1` [IV-75] was tested, and the “Evaluation (effect for cucumber anthracnose)” value [1] was 3 (6˜10) and the “Evaluation (effect for rice blast)” value [2] was 2 (11˜20).

With `COc1ccc(C(=O)NCc2cc(COc3c(C)cccc3C)no2)cc1` [IV-80, N-{[3-(2,6-dimethylphenyl)oxymethyl-5-isoxazolyl]methyl}-4-methoxybenzamide] the “Evaluation (effect for cucumber anthracnose)” value [1] was 4 (1˜5) and the “Evaluation (effect for rice blast)” value [2] was 4 (1˜5).

For `COc1ccc(C(=O)NCc2cc(C(=O)Nc3ccccc3)no2)cc1` [IV-84, N-[(3-phenylaminocarbonyl-5-isoxazolyl)methyl]-4-methoxybenzamide], the “Evaluation (effect for cucumber anthracnose)” value [1] was 5 (0) and the “Evaluation (effect for rice blast)” value [2] was 5 (0).

For `COc1ccc(C(=O)NCc2cc(COc3c(F)cccc3F)no2)cc1` [IV-86, N-{[3-(2,6-difluorophenyl)oxymethyl-5-isoxazolyl]methyl}-4-methoxybenzamide], the “Evaluation (effect for cucumber anthracnose)” value [1] was 5 (0) and the “Evaluation (effect for rice blast)” value [2] was 5 (0).

`COc1ccc(C(=O)NCc2cc(COc3ccc(C(C)=O)cc3)no2)cc1` [IV-87, N-{[3-(4-acetylphenyl)oxymethyl-5-isoxazolyl]methyl}-4-methoxybenzamide] was tested, and the “Evaluation (effect for cucumber anthracnose)” value [1] was 4 (1˜5) and the “Evaluation (effect for rice blast)” value [2] was 5 (0).

`CNC(=O)c1ccc(OCc2cc(CNC(=O)c3ccc(OC)cc3)on2)cc1` [IV-88, N-{[3-(4-methylaminocarbonylphenyl)oxymethyl-5-isoxazolyl]methyl}-4-methoxybenzamide] was tested, and the “Evaluation (effect for cucumber anthracnose)” value [1] was 3 (6˜10) and the “Evaluation (effect for rice blast)” value [2] was 3 (6˜10).

With `COc1ccc(C(=O)NCc2cc(/C=C/c3ccco3)no2)cc1` [IV-89, N-{[3-(2-(2-furyl)ethenyl)-5-isoxazolyl]methyl}-4-methoxybenzamide] the “Evaluation (effect for cucumber anthracnose)” value [1] was 5 (0) and the “Evaluation (effect for rice blast)” value [2] was 5 (0).

In the case of `COc1ccc(C(=O)NCc2cc(COc3ccncc3)no2)cc1` [IV-90, N-{[3-(4-pyridyl)oxymethyl-5-isoxazolyl]methyl}-4-methoxybenzamide], the “Evaluation (effect for cucumber anthracnose)” value [1] is reported as 3 (6˜10) and the “Evaluation (effect for rice blast)” value [2] is reported as 3 (6˜10).

In the case of `COc1ccc(C(=O)NCc2cc(COc3ccccn3)no2)cc1` [IV-92, N-{[3-(2-pyridyl)oxymethyl-5-isoxazolyl]methyl}-4-methoxybenzamide], the “Evaluation (effect for cucumber anthracnose)” value [1] is reported as 3 (6˜10) and the “Evaluation (effect for rice blast)” value [2] is reported as 4 (1˜5).

`COc1ccc(C(=O)NCc2cc(C(=O)Nc3ccc(OC(F)F)cc3)no2)cc1` [IV-93, N-{[3-(4-difluoromethyloxyphenyl)aminocarbonyl-5-isoxazolyl]methyl}-4-methoxybenzamide] was tested, and the “Evaluation (effect for cucumber anthracnose)” value [1] was 3 (6˜10) and the “Evaluation (effect for rice blast)” value [2] was 4 (1˜5).

For `COc1ccc(NC(=O)c2cc(CNC(=O)c3ccc(OC)cc3)on2)cc1` [IV-94, N-{[3-(4-methoxyphenyl)aminocarbonyl-5-isoxazolyl]methyl}-4-methoxybenzamide], the “Evaluation (effect for cucumber anthracnose)” value [1] was 3 (6˜10) and the “Evaluation (effect for rice blast)” value [2] was 2 (11˜20).

With `COc1ccc(C(=O)NCc2cc(C(=O)Nc3ccc(F)cc3)no2)cc1` [IV-95, N-{[3-(4-fluorophenyl)aminocarbonyl-5-isoxazolyl]methyl}-4-methoxybenzamide] the “Evaluation (effect for cucumber anthracnose)” value [1] was 4 (1˜5) and the “Evaluation (effect for rice blast)” value [2] was 4 (1˜5).

For `COc1ccc(C(=O)NCc2cc(C(=O)Nc3ccccc3Cl)no2)cc1` [IV-96, N-{[3-(2-chlorophenyl)aminocarbonyl-5-isoxazolyl]methyl}-4-methoxybenzamide], the “Evaluation (effect for cucumber anthracnose)” value [1] was 4 (1˜5) and the “Evaluation (effect for rice blast)” value [2] was 4 (1˜5).

In the case of `COc1ccc(C(=O)NCc2cc(C(=O)Nc3ccc(C#N)cc3)no2)cc1` [IV-97, N-{[3-(4-cyanophenyl)aminocarbonyl-5-isoxazolyl]methyl}-4-methoxybenzamide], the “Evaluation (effect for cucumber anthracnose)” value [1] is reported as 5 (0) and the “Evaluation (effect for rice blast)” value [2] is reported as 5 (0).

For `O=C(/C=C/c1ccccc1)NCc1cc(COc2ccccc2)no1` [IV-99, N-[(3-phenoxymethyl-5-isoxazolyl)methyl]-β-phenylacrylamide], the “Evaluation (effect for cucumber anthracnose)” value [1] was 4 (1˜5) and the “Evaluation (effect for rice blast)” value [2] was 4 (1˜5).

For `COc1ccc(C(=O)NCc2cc(C(=O)Nc3cccc(Cl)c3)no2)cc1` [IV-105, N-{[3-(3-chlorophenyl)aminocarbonyl-5-isoxazolyl]methyl}-4-methoxybenzamide], the “Evaluation (effect for cucumber anthracnose)” value [1] was 3 (6˜10) and the “Evaluation (effect for rice blast)” value [2] was 3 (6˜10).

For `COc1ccc(C(=O)NCc2cc(C(=O)Nc3ccc(F)cc3F)no2)cc1` [IV-107, N-{[3-(2,4-difluorophenyl)aminocarbonyl-5-isoxazolyl]methyl}-4-methoxybenzamide], the “Evaluation (effect for cucumber anthracnose)” value [1] was 5 (0) and the “Evaluation (effect for rice blast)” value [2] was 5 (0).

With `COc1ccc(C(=O)NCc2cc(C(=O)Nc3ccc(C)cc3)no2)cc1` [IV-108, N-{[3-(4-tolyl)aminocarbonyl-5-isoxazolyl]methyl}-4-methoxybenzamide] the “Evaluation (effect for cucumber anthracnose)” value [1] was 2 (11˜20) and the “Evaluation (effect for rice blast)” value [2] was 2 (11˜20).

For `COc1ccc(C(=O)NCc2cc(C#Cc3ccccc3)no2)cc1` [IV-110, N-[(3-phenylethynyl-5-isoxazolyl)methyl]-4-methoxybenzamide], the “Evaluation (effect for cucumber anthracnose)” value [1] was 5 (0) and the “Evaluation (effect for rice blast)” value [2] was 5 (0).

In the case of `COCc1cc(CNC(=O)c2ccc(OC)cc2)on1` [IV-111, N-[(3-methoxymethyl-5-isoxazolyl)methyl]-4-methoxybenzamide], the “Evaluation (effect for cucumber anthracnose)” value [1] is reported as 3 (6˜10) and the “Evaluation (effect for rice blast)” value [2] is reported as 3 (6˜10).

`COc1ccc(C(=O)NCc2cc(C(=O)Nc3ccccc3C#N)no2)cc1` [IV-112, N-{[3-(2-cyanophenyl)aminocarbonyl-5-isoxazolyl]methyl}-4-methoxybenzamide] was tested, and the “Evaluation (effect for cucumber anthracnose)” value [1] was 3 (6˜10) and the “Evaluation (effect for rice blast)” value [2] was 2 (11˜20).

In the case of `O=C(NCc1cc(C(=O)Nc2ccccc2)no1)c1ccccc1` [IV-113, N-[(3-phenylaminocarbonyl-5-isoxazolyl)methyl]benzamide], the “Evaluation (effect for cucumber anthracnose)” value [1] is reported as 4 (1˜5) and the “Evaluation (effect for rice blast)” value [2] is reported as 4 (1˜5).

`O=C(NCc1cc(C(=O)Nc2ccccc2)no1)c1ccc(Cl)cc1` [IV-114, N-[(3-phenylaminocarbonyl-5-isoxazolyl)methyl]-4-chlorobenzamide] was tested, and the “Evaluation (effect for cucumber anthracnose)” value [1] was 5 (0) and the “Evaluation (effect for rice blast)” value [2] was 5 (0).

`Cc1ccc(C(=O)NCc2cc(C(=O)Nc3ccccc3)no2)cc1` [IV-115, N-[(3-phenylaminocarbonyl-5-isoxazolyl)methyl]-4-methylbenzamide] was tested, and the “Evaluation (effect for cucumber anthracnose)” value [1] was 5 (0) and the “Evaluation (effect for rice blast)” value [2] was 5 (0).

`Cc1cccc(C(=O)NCc2cc(C(=O)Nc3ccccc3)no2)c1` [IV-116, N-[(3-phenylaminocarbonyl-5-isoxazolyl)methyl]-3-methylbenzamide] was tested, and the “Evaluation (effect for cucumber anthracnose)” value [1] was 4 (1˜5) and the “Evaluation (effect for rice blast)” value [2] was 5 (0).

With `Cc1ccccc1C(=O)NCc1cc(C(=O)Nc2ccccc2)no1` [IV-117, N-[(3-phenylaminocarbonyl-5-isoxazolyl)methyl]-2-methylbenzamide] the “Evaluation (effect for cucumber anthracnose)” value [1] was 4 (1˜5) and the “Evaluation (effect for rice blast)” value [2] was 4 (1˜5).

With `COc1ccc(C(=O)NCc2cc(C(=O)NC(C)(C)C)no2)cc1` [IV-119, N-[(3-tert-butylaminocarbonyl-5-isoxazolyl)methyl]-4-methoxybenzamide] the “Evaluation (effect for cucumber anthracnose)” value [1] was 3 (6˜10) and the “Evaluation (effect for rice blast)” value [2] was 2 (11˜20).

For `COc1ccc(C(=O)NCc2cc(C(=O)NC3CCCC3)no2)cc1` [IV-120, N-[(3-cyclopentylaminocarbonyl-5-isoxazolyl)methyl]-4-methoxybenzamide], the “Evaluation (effect for cucumber anthracnose)” value [1] was 2 (11˜20) and the “Evaluation (effect for rice blast)” value [2] was 3 (6˜10).

`O=C(NCc1cc(COc2ccccc2)no1)C1CCCCC1` [IV-121, N-[(3-phenoxymethyl-5-isoxazolyl)methyl)cyclohexanecarboxamide] was tested, and the “Evaluation (effect for cucumber anthracnose)” value [1] was 4 (1˜5) and the “Evaluation (effect for rice blast)” value [2] was 4 (1˜5).

In the case of `O=C(NCc1cc(COc2ccccc2)no1)c1cc(Cl)nc(Cl)c1` [IV-122, N-[(3-phenoxymethyl-5-isoxazolyl)methyl]-2,6-dichloropyridine-4-carboxamide], the “Evaluation (effect for cucumber anthracnose)” value [1] is reported as 2 (11˜20) and the “Evaluation (effect for rice blast)” value [2] is reported as 3 (6˜10).

With `COc1ccc(C(=O)NCc2cc(/C=N/OCc3ccccc3)no2)cc1` [IV-124, N-[(3-benzyloxyiminomethyl-5-isoxazolyl)methyl]-4-methoxybenzamide] the “Evaluation (effect for cucumber anthracnose)” value [1] was 5 (0) and the “Evaluation (effect for rice blast)” value [2] was 5 (0).
